Calls of active or inactive are those of the source.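 Rule for the calls: active = AC50, the dose giving half-maximal effect, exceeds a fixed cutoff for a compound that rescues yeast growth under heat; inactive = the rest, inconclusive results apart.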
System: S. cerevisiae Burl-1 ts mutant growth, BacTiter-Glo, 38.5C 24 h
Experiment: restored growth of temperature-sensitive Burl-1 yeast – whole organism, S. cerevisiae, Burl-1 ts mutant, luminescence, counter-screen for SUMOylation pathway inhibitor project, dose response (AID 463199)

SMILES	AC50
COc1ccc(/C=N/NC(=O)c2nnn(-c3nonc3N)c2-c2cccs2)cc1OC	> 42 µM (inactive)
CCN(CC)C(=O)Cn1cc(S(=O)(=O)CC(=O)NCCc2ccc(OC)c(OC)c2)c2ccccc21	> 42 µM (inactive)
CN(C(=O)COC(=O)c1cc(-c2ccc(Cl)s2)nc2ccccc12)C1CCS(=O)(=O)C1 (centres undefined)	> 42 µM (inactive)
O=C(CN1CCN(c2ccccc2F)CC1)Nc1nnc(C(F)(F)F)s1	> 42 µM (inactive)
COc1c2ccoc2nc2c(OC)c(OC[C@@H](O)C(C)(C)O)ccc12	> 42 µM (inactive)
COc1ccc(S(=O)(=O)NCC(=O)N(CC(=O)NCc2ccco2)Cc2ccccc2)cc1	> 42 µM (inactive)
On1c(-c2ccccc2Cl)nc2ncccc21	> 42 µM (inactive)
N#C/C(=C\Nc1ccc2c(c1)OCCO2)c1nc2ccccc2[nH]1	> 42 µM (inactive)
COc1ccc(NC(=O)Cn2nnc(C(=O)Nc3ccc(F)c(Cl)c3)c2N)cc1	> 42 µM (inactive)
CCOc1c(P(=S)(N(C)C)N(C)C)c(C)nn1-c1ccccc1	> 42 µM (inactive)
CCOC(=O)C1(CCOc2ccccc2)CCN(Cc2cccc(OC)c2O)CC1	> 42 µM (inactive)
CCn1c(SCc2nc3ccccc3[nH]2)nnc1-c1cccnc1	> 42 µM (inactive)
COc1cc(C(=O)NCCC2=CCCCC2)ccc1OC1CCN(C(C)=O)CC1	> 42 µM (inactive)
COc1ccccc1-n1nnnc1SCC(=O)Nc1ccc(C)c(N)c1	> 42 µM (inactive)
Cc1ccc(NC(=O)CSCC(=O)Nc2ccccc2N2CCCC2)cc1	> 42 µM (inactive)
CCC(C)[C@H](N)c1nnc(SCC(=O)Nc2cccc(Cl)c2)o1 (some centres undefined)	> 42 µM (inactive)
CCN(CC)c1ccc(Nc2cc3n(c(=O)n2)CCc2cc(OC)c(OC)cc2-3)cc1	> 42 µM (inactive)
Cc1ccccc1-c1nc(CN2CCCC(C(=O)NCc3cccnc3)C2)c(C)o1 (centres undefined)	> 42 µM (inactive)
CCNCc1nc2cc(Cl)ccc2c(=O)[nH]1	> 42 µM (inactive)
O=C(COc1cccnc1[N+](=O)[O-])Nc1ccc2c(c1)CCC2	> 21 µM (inactive)
C/C=C/C(=O)OCC(=O)Nc1nc2ccc(C)cc2s1	> 42 µM (inactive)
C/C(=C\C(=O)N1CCc2ccccc21)C(=O)O	> 42 µM (inactive)
O=c1c2ccccc2c2ccccc2c(=O)n1-c1ccccc1	> 42 µM (inactive)
O=S(=O)(NCc1ccccc1)c1ccc(S(=O)(=O)N(Cc2ccccn2)Cc2ccco2)cc1	16.7 µM
O=C(N/N=C/c1ccccc1)c1[nH]c2ccc(Br)cc2c1-c1ccccc1	> 42 µM (inactive)

SMILES	AC50
CCCNC(=O)COC(=O)CCC(=O)c1cccs1	> 42 µM (inactive)
O=C(NCc1cccnc1)Nc1ccccc1	> 42 µM (inactive)
CCN1C(=O)N(C)[C@@H](c2ccccc2)C(C(=O)OC)=C1C	> 42 µM (inactive)
C/C(=N/Nc1ccc(F)cc1)c1ccc(Cl)s1	> 42 µM (inactive)
CC1(C)CC(=O)C(C(=O)c2ccccc2)C(=O)C1Cl (centres undefined)	> 42 µM (inactive)
COc1cccc(-c2nn(-c3ccccc3)cc2/C=C(/NC(=O)c2ccccc2)C(=O)O)c1	> 42 µM (inactive)
CCC(=O)N1c2ccc(S(=O)(=O)N3CCN(c4ccc([N+](=O)[O-])cc4)CC3)cc2CC1C (centres undefined)	> 42 µM (inactive)
O=C(CSc1nccc(=O)[nH]1)c1cc2ccccc2o1	> 42 µM (inactive)
CC(=O)Nc1ccc(C(=O)NCCCOC(C)C)cc1	> 42 µM (inactive)
CSc1nncc(/C(C)=N\Nc2cccc(C)c2)n1	> 42 µM (inactive)
Cc1ccc(S(=O)(=O)Oc2ccccc2N2C(=O)C3CC=CCC3C2=O)cc1 (centres undefined)	> 42 µM (inactive)
Cc1cc(C)cc(C(=O)Oc2cc(C)[nH]c(=O)c2[N+](=O)[O-])c1	> 42 µM (inactive)
C=CCNC(=O)NC(=O)COC(=O)/C(C#N)=C/c1cc(C)n(CC(C)C)c1C	> 42 µM (inactive)
CCN1CCN(C(=O)c2ccc3nc(-c4ccccc4)c(-c4ccccc4)nc3c2)CC1	> 42 µM (inactive)
COc1ccc(/C=C2\SC(=S)N(CCCC(=O)Nc3cc(C)on3)C2=O)cc1OC	> 42 µM (inactive)
CC1=CC2=NC(=O)/C(=C\c3cc(C)n(-c4ccccc4)c3C)C(=N)N2O1	> 42 µM (inactive)
CC1=C(C(=O)OCc2ccccc2)C(c2cccc(F)c2)NC(=O)N1 (centres undefined)	> 42 µM (inactive)
COC(=O)c1ccc(Cn2cc(Cl)cn2)cc1	> 42 µM (inactive)
O=C(c1ccc(COc2ccccc2Cl)o1)N1N=C(C(F)F)CC1(O)C(F)F (centres undefined)	> 42 µM (inactive)
CCN1CCCC1CN(Cc1cc2ccc(C)cc2[nH]c1=O)C(=S)Nc1ccccc1C(=O)OC (centres undefined)	> 42 µM (inactive)
CCOC(=O)c1oc2cc(OC(C)=O)ccc2c(=O)c1-c1ccc(OC)c(OC)c1	> 42 µM (inactive)
C/C(CC1(O)C(=O)Nc2ccccc21)=N\O (centres undefined)	> 42 µM (inactive)
CN(C)C(/C=C/Nc1cccc(Br)c1)=C(C#N)C#N	> 42 µM (inactive)
COCC(C)n1c(SCC(=O)NNC(=O)c2ccccc2)nc2ccccc2c1=O (centres undefined)	> 42 µM (inactive)

— PubChem BioAssay AID463199 (Broad Institute, 2010)
